# Source: patent US20110206638A1, “COMPOSITIONS AND METHODS FOR REDUCING THE MUTATION RATE OF VIRUSES” (priority 2010, published 2011)
# Columns and labels:
# Con1 replicon cells = assay: 8-OHG oxidative RNA damage in SgPC2 Con1 replicon cells (ELISA); format: cell-based, human; details: for 8-OH-G in Con1 replicon (SgPC2) cells, daily treatment for 2 weeks: 0.1% ethanol, 5 μM acetaldehyde; for 8-OH-G in Con1 replicon (SgPC2) cells, daily treatment for 2 weeks / fold increase in 8-OHG content over the control: 20 μM BSO; for 8-OH-G in SgPC2 cells within 2 days: 0.5% ethanol, BSO; for fold increase in 8-OHG content over the control: 48 hrs, 0.5% (v/v) ethanol, 250 μM NiCl2 daily
# Experimental: Total RNA was isolated using Trizol (Invitrogen) and analyzed for 8-OH-guanosine (8-OH-G) by northwestern, as described (Shan X et al. (2003) J. Neurosci. 23:4913-4921). Briefly, RNA was size-fractionated by agarose gel electrophoresis, transferred to a nylon membrane, blocked with 1% BSA, incubated sequentially with monoclonal anti-8-OH-G/dG antibodies (QED Bioscience, Inc.) and then with goat anti-mouse HRP-conjugated secondary antibody (Santa Cruz Biotechnology), and signals were detected, using an ECL kit (Amersham). In addition, RNA was digested with nuclease P1 (Sigma, US Biological) and alkaline phosphatase (Promega) and analyzed for 8-OH-G content using RNA Damage Kit (Cell Biolabs, Inc.), following manufacturer's protocols.
# (§1) Total RNA was isolated using Trizol (Invitrogen) and analyzed for 8-OHG by ELISA. Briefly, RNA was incubated with 10 U DNase I (GE Healthcare), 10 U nuclease P1 (Sigma or US Biological), and 10 U alkaline phosphatase (Promega) and analyzed for 8-OHG content with RNA Damage Kit (Cell Biolabs, Inc.) and 8-OHG standards, following manufacturer's protocols.
# [1] = test system: Huh7 cells transfected with JFH1 RNA; assay: 8-OHG oxidative RNA damage in Huh7 cells transfected with JFH1 RNA (ELISA); format: cell-based, human; details: 48 hr (0.5% ethanol, 20 μM BSO) and 2 weeks (0.1% ethanol, 20 μM BSO)
# Experimental: as §1
# HCV induces severe oxidative/nitrosative stress in the host by increasing the generation of reactive species. Thus, JFH1 strain of genotype 2a that supports complete replication cycle of HCV and produces infectious HCV in cell culture was used next to determine whether HCV was sufficient to induce oxidative RNA damage even in the absence of ethanol and BSO. Huh7 cells were transfected with JFH1 RNA and either exposed to 0.5% ethanol (v/v) or 20 μM BSO daily for 48 hrs, or to 0.1% ethanol (v/v) or 20 μM BSO with and without 5 μM dipyridyl or 1 mM GSH ester daily with a change of medium prior to each treatment for 2 weeks.
# [2] = test system: subgenomic HCV replicon of genotype 1b (Con1), NS5A region; assay: NS5A sequencing of HCV RNA, mutation frequency in SgPC2 Con1 replicon cells (Example 1); format: cell-based, Hepatitis C virus; details: for dn/ds ratio: control 0.33; for Percentage of sites showing positive selection: control 2.36; for mutation frequency, nucleotide changes per site / amino acid changes per codon: SgPC2 Con1 replicon cells, once daily for 48 hrs, ethanol 0.5%; for mutation frequency, nucleotide changes per site: normalized by T7 baseline
# Experimental: Huh7 cell clones (SgPC2 cells) supporting continuous replication of a subgenomic HCV replicon of genotype 1b (Con1 sequence) were used (Choi J. et al. (2004) Hepatology 39:81-89; Blight K J et al. (2000) Science 290:1972). The subgenomic replicons support HCV RNA replication but no virus is formed. The in vitro transcription, transfection of HCV RNA, and Huh7 human hepatoma cell culture were performed by methods known in the art and as previously described (Choi J. et al. (2004) Hepatology 39:81-89; Blight K J et al. (2000) Science 290:1972).
# After various treatments, total RNAs were collected using Trizol (Invitrogen). Then, the NS5A region (nt. 4612 to 6013 of Con1 replicon) was reverse transcribed/amplified with AccuScript High Fidelity RT-PCR System (Stratagene). The cDNAs were cloned into pUC19 and sequenced at the Joint Genome Institute (Livermore, Calif.). Sequences were aligned against Con1(S11791) sequence, using BioEdit/MEGA 4.0 Molecular Evolutionary Genetics Analysis software.
# To test whether ethanol can increase the mutation rate of HCV, SgPC2 Con1 replicon cells that support genotype 1b subgenomic HCV RNA replication (FIG. 2B) were incubated with ethanol (0.5%), BSO (amplifies the effects of endogenous ROS/RNS by decreasing the level of glutathione in the cell), H2O2 (100 μM), or acetaldehyde (10 μM) once daily for 48 hrs. Then, the RNAs were collected, and the NS5A region (nt. 4612 to 6013 of Con1 replicon) was reverse transcribed/amplified with AccuScript High Fidelity RT-PCR System (Stratagene). Then, the cDNAs were cloned into pUC19 and sequenced at the Joint Genome Institute (Livermore, Calif.). T7 HCV RNA transcript, initially used to transfect the Con1 cells, was also sequenced to assess the basal level of RNA heterogeneity, such as due to any heterogeneity of the DNA template prior to in vitro transcription as well as any errors generated during transcription and RT-PCR cloning. The experiments were focused on NS5A because of its moderate level of diversity and its role in viral replication as well as interferon resistance. Sequences were aligned against Con1(S1179I) sequence, using BioEdit/MEGA 4.0 Molecular Evolutionary Genetics Analysis software.
SMILES,"8-OH-G in Con1 replicon (SgPC2) cells, daily treatment for 2 weeks (Con1 replicon cells)",8-OH-G in SgPC2 cells within 2 days (Con1 replicon cells),fold increase in 8-OHG content over the control (Con1 replicon cells) [fold],8-OHG increased by HCV (JFH1) [1],"amino acid changes, fold higher than the control group ([2]; 48 hrs) [fold]","nucleotide changes, fold higher than the control group ([2]; 48 hrs)",dn/ds ratio ([2]; 48 hrs),Percentage of sites showing positive selection ([2]; 48 hrs) [%],"mutation frequency, nucleotide changes per site [2]",amino acid changes per codon [2],"Ts/Tv ratio ([2]; 48 hrs, control approximately 2.7)","location of synonymous and nonsynonymous mutations in NS5A ([2]; SNAP plot against codons, 48 hrs)"
"CCCCS(=N)(=O)CCC(N)C(=O)O [BSO, L-buthionine-S,R-sulfoximine]",significant increases,increased,23.4±1.5,exacerbated,~12,about 4 fold,0.59,6.42,6.74×10^−4 nucleotide changes per site,1.67×10^−3 amino acid changes per codon,,
"CCO [Ethanol, ethanol]",significant increases,increased,34.9±1.2,exacerbated,~24,~8 fold,0.76,5.14,1.33×10^−3 nucleotide changes per site,3.05×10^−3 amino acid changes per codon,5.7,clustered in the C-terminal half of NS5A
